Key:
Assay type in all cases: in vivo
[1] = test system: Alopecurus myosuroides (ALOMY); assay: Example A pre-emergence herbicidal glasshouse test; conditions: 312 h, Rate 250 g/ha, evaluated after 13 days, 100=total damage to plant, 0=no damage to plant
Procedure, shortened: (§1)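 Compound sprayed in acetone/water (50:50) plus 0.5% Tween 20 onto potted soil one day post-sowing, or onto seedlings after 8 days. Scored 0–100 for damage after 13 days.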

[2] = test system: Amaranthus retroflexus (AMARE); assay: Example A pre-emergence herbicidal glasshouse test; conditions: 312 h, Rate 250 g/ha, evaluated after 13 days, 100=total damage to plant, 0=no damage to plant
Procedure, shortened: as §1

Avena fatua (AVEFA) [3] = assay: Example A pre-emergence herbicidal glasshouse test; conditions: 312 h, Rate 250 g/ha, evaluated after 13 days, 100=total damage to plant, 0=no damage to plant
Procedure, shortened: as §1

[4] = test system: Echinochloa crus-galli (ECHCG); assay: Example A pre-emergence herbicidal glasshouse test; conditions: 312 h, Rate 250 g/ha, evaluated after 13 days, 100=total damage to plant, 0=no damage to plant
Procedure, shortened: as §1

Setaria faberi (SETFA) [5] = assay: Example A pre-emergence herbicidal glasshouse test; conditions: 312 h, Rate 250 g/ha, evaluated after 13 days, 100=total damage to plant, 0=no damage to plant
Procedure, shortened: as §1

[6] = test system: Alopecurus myosuroides (ALOMY); assay: Example A post-emergence herbicidal glasshouse test; conditions: 312 h, evaluated after 13 days, 100=total damage to plant, 0=no damage
Procedure, shortened: as §1

[7] = test system: Amaranthus retroflexus (AMARE); assay: as above; conditions: 312 h, evaluated after 13 days, 100=total damage to plant, 0=no damage
Procedure, shortened: as §1

Avena fatua (AVEFA) [8] = assay: as above; conditions: 312 h, evaluated after 13 days, 100=total damage to plant, 0=no damage
Procedure, shortened: as §1

[9] = test system: Echinochloa crus-galli (ECHCG); assay: as above; conditions: 312 h, evaluated after 13 days, 100=total damage to plant, 0=no damage
Procedure, shortened: as §1

Setaria faberi (SETFA) [10] = assay: as above; conditions: 312 h, evaluated after 13 days, 100=total damage to plant, 0=no damage
Procedure, shortened: as §1

[11] = test system: Alopecurus myosuroides (ALOMY); assay: Example B pre-emergence herbicidal greenhouse test; conditions: 480 h, evaluated after 20 days, 100=total damage to plant, 0=no damage
Method: (§2) Seeds of a variety of test species were sown in standard soil in pots. After cultivation for one day (pre-emergence) or after 10 days cultivation (post-emergence) under controlled conditions in a glasshouse, the plants were sprayed with an aqueous spray solution derived from the formulation of the technical active ingredient in 0.6 ml acetone and 45 ml formulation solution containing 10.6% Emulsogen EL (Registry number 61791-12-6), 42.2% N-methylpyrrolidone, 42.2% dipropylene glycol monomethyl ether (Registry number 34590-94-8) and 0.2% X-77 (Registry number 11097-66-8). The test plants were then grown in a greenhouse under optimum conditions until, 15 days later for post-emergence and 20 days for pre-emergence, the test was evaluated (100=total damage to plant; 0=no damage to plant).
(§3) Alopecurus myosuroides (ALOMY), Avena fatua (AVEFA), Lolium perenne (LOLPE), Setaria faberi (SETFA), Digitaria sanguinalis (DIGSA), Echinochloa crus-galli (ECHCG)

Avena fatua (AVEFA) [12] = assay: Example B pre-emergence herbicidal greenhouse test; conditions: 480 h, evaluated after 20 days, 100=total damage to plant, 0=no damage
Method: as §2, §3

[13] = test system: Digitaria sanguinalis (DIGSA); assay: Example B pre-emergence herbicidal greenhouse test; conditions: 480 h, evaluated after 20 days, 100=total damage to plant, 0=no damage
Method: as §2, §3

[14] = test system: Echinochloa crus-galli (ECHCG); assay: Example B pre-emergence herbicidal greenhouse test; conditions: 480 h, evaluated after 20 days, 100=total damage to plant, 0=no damage
Method: as §2, §3

Lolium perenne (LOLPE) [15] = assay: Example B pre-emergence herbicidal greenhouse test; conditions: 480 h, evaluated after 20 days, 100=total damage to plant, 0=no damage
Method: as §2, §3

Setaria faberi (SETFA) [16] = assay: Example B pre-emergence herbicidal greenhouse test; conditions: 480 h, evaluated after 20 days, 100=total damage to plant, 0=no damage
Method: as §2, §3

[17] = test system: Alopecurus myosuroides (ALOMY); assay: Example B post-emergence herbicidal greenhouse test; conditions: 360 h, evaluated after 15 days, 100=total damage to plant, 0=no damage
Method: as §2, §3

Avena fatua (AVEFA) [18] = assay: as above; conditions: 360 h, evaluated after 15 days, 100=total damage to plant, 0=no damage
Method: as §2, §3

[19] = test system: Digitaria sanguinalis (DIGSA); assay: as above; conditions: 360 h, evaluated after 15 days, 100=total damage to plant, 0=no damage
Method: as §2, §3

[20] = test system: Echinochloa crus-galli (ECHCG); assay: as above; conditions: 360 h, evaluated after 15 days, 100=total damage to plant, 0=no damage
Method: as §2, §3

Lolium perenne (LOLPE) [21] = assay: as above; conditions: 360 h, evaluated after 15 days, 100=total damage to plant, 0=no damage
Method: as §2, §3

Setaria faberi (SETFA) [22] = assay: as above; conditions: 360 h, evaluated after 15 days, 100=total damage to plant, 0=no damage
Method: as §2, §3

SMILES | pest or weed control at 250 g/ha [1] | pest or weed control at 250 g/ha [2] | pest or weed control at 250 g/ha (Avena fatua (AVEFA) [3]) | pest or weed control at 250 g/ha [4] | pest or weed control at 250 g/ha (Setaria faberi (SETFA) [5]) | pest or weed control at 250 g/ha [6] | pest or weed control at 250 g/ha [7] | pest or weed control at 250 g/ha (Avena fatua (AVEFA) [8]) | pest or weed control at 250 g/ha [9] | pest or weed control at 250 g/ha (Setaria faberi (SETFA) [10]) | pest or weed control at 250 g/ha [11] | pest or weed control at 250 g/ha (Avena fatua (AVEFA) [12]) | pest or weed control at 250 g/ha [13] | pest or weed control at 250 g/ha [14] | pest or weed control at 250 g/ha (Lolium perenne (LOLPE) [15]) | pest or weed control at 250 g/ha (Setaria faberi (SETFA) [16]) | pest or weed control at 125 g/ha [17] | pest or weed control at 125 g/ha (Avena fatua (AVEFA) [18]) | pest or weed control at 125 g/ha [19] | pest or weed control at 125 g/ha [20] | also measured
CCc1ccc(-c2ccc(Cl)c(C)c2)cc1C1=C(O)[C@H]2CC[C@H](C2)C1=O [Compound T32, 3-(4′-chloro-4-ethyl-3′-methylbiphen-3-yl)bicyclo[3.2.1]octane-2,4-dione] | 30% | 0% | 40% | 100% | 20% | 60% | 0% | 0% | 100% | 90% | 90% | 10% | 100% | 100% | 90% | 60% | 30% | 10% | 70% | 100% | pest or weed control at 125 g/ha (Lolium perenne (LOLPE) [21]): 0%; pest or weed control at 125 g/ha (Setaria faberi (SETFA) [22]): 30%
CCc1cc(-c2ccc(Cl)cc2)cc(CC)c1C1=C(O)[C@H]2CC[C@H](C2)C1=O [Compound T62, 3-(4′-chloro-3,5-diethylbiphen-4-yl)bicyclo[3.2.1]octane-2,4-dione] | 80% | 20% | 80% | 100% | 100% | 100% | 0% | 90% | 100% | 100% | 100% | 50% | 100% | 100% | 100% | 100% | 60% | 60% | 100% | 100% | pest or weed control at 125 g/ha (Lolium perenne (LOLPE) [21]): 50%; pest or weed control at 125 g/ha (Setaria faberi (SETFA) [22]): 100%
CCc1ccc(-c2ccc(Cl)cc2C)cc1C1=C(O)[C@H]2CC[C@H](C2)C1=O (single isomer, unassigned) [Compound T33] | 60% | 0% | 20% | 90% | 90% | 60% | 0% | 60% | 100% | 100% | 60% | 20% | 70% | 70% | 70% | 70% | 60% | 70% | 60% | 100% | pest or weed control at 125 g/ha (Lolium perenne (LOLPE) [21]): 20%; pest or weed control at 125 g/ha (Setaria faberi (SETFA) [22]): 100%
CCc1ccc(-c2ccc(Cl)c(Cl)c2)cc1C1=C(O)[C@H]2CC[C@H](C2)C1=O (single isomer, unassigned) [Compound T35] | 20% | 0% | 20% | 90% | 90% | 40% | 0% | 50% | 100% | 100% | 10% | 30% | 70% | 50% | 20% | 40% | 0% | 10% | 70% | 80% | pest or weed control at 125 g/ha (Lolium perenne (LOLPE) [21]): 20%; pest or weed control at 125 g/ha (Setaria faberi (SETFA) [22]): 70%
CCc1ccc(-c2ccc(Cl)cc2)cc1C1=C(O)[C@H]2CC[C@H](CC2)C1=O [Compound T54, 3-(4′-chloro-4-ethylbiphen-3-yl)bicyclo[3.2.2]nonane-2,4-dione] | 90% | 40% | 90% | 100% | 100% | 100% | 0% | 100% | 100% | 100% | 70% | 50% | 100% | 100% | 100% | 90% | 90% | 70% | 100% | 100% | pest or weed control at 125 g/ha (Lolium perenne (LOLPE) [21]): 60%; pest or weed control at 125 g/ha (Setaria faberi (SETFA) [22]): 100%
CCc1ccc(-c2ccc(Cl)cc2F)cc1C1=C(O)[C@H]2CC[C@H](C2)C1=O (single isomer, unassigned) [Compound T41] | 60% | 0% | 100% | 90% | 100% | 60% | 0% | 100% | 100% | 100% | 90% | 60% | 100% | 100% | 100% | 100% | 80% | 100% | 100% | 100% | pest or weed control at 125 g/ha (Lolium perenne (LOLPE) [21]): 70%; pest or weed control at 125 g/ha (Setaria faberi (SETFA) [22]): 100%
CCc1ccc(-c2ccc(Cl)cc2OC)cc1C1=C(O)[C@H]2CC[C@H](C2)C1=O (single isomer, unassigned) [Compound T43] | 0% | 0% | 0% | 90% | 30% | 50% | 0% | 40% | 90% | 80% | 0% | 60% | 60% | 40% | 0% | 20% | 0% | 0% | 50% | 70% | pest or weed control at 125 g/ha (Lolium perenne (LOLPE) [21]): 30%; pest or weed control at 125 g/ha (Setaria faberi (SETFA) [22]): 60%

Source: patent US8828908B2, “Herbicidally active bicyclic 1,3-dione compounds” (Syngenta Limited, priority 2007, dated 2014)
